PMC10384408, “Anticancer Tungstenocenes with a Diverse Set of (O,O–), (O,S–) and (O,N–) Chelates—A Detailed Biological Study Using an Improved Evaluation via 3D Spheroid Models” (Pharmaceutics, 2023)
Read-outs that look alike come from different tables or passages of the source.

Legend:
[1] = system: IMR-90 human lung fibroblasts; assay: MTT cytotoxicity assay, IMR-90 fibroblasts; type: cell-based; details: exposure time 96 h, mean ± SD
Procedure: (§1) CH1/PA-1 (ovarian teratocarcinoma), SW480 (colon carcinoma) and A549 (non-small cell lung cancer) cells were maintained as described in the reference. IMR-90 human fetal lung fibroblasts (from the European Collection of Authenticated Cell Cultures, Porton Down, Salisbury, UK) were cultured in Stable Cell^TM DMEM/F12 supplemented with 0.01 mg/mL human recombinant insulin (both purchased from Sigma-Aldrich) and 10% fetal bovine serum (FBS, BioWest, Nuaillé, France). Human colon carcinoma cell lines HCT116 and HT29 (both kindly provided by the Institute of Cancer Research, Department of Medicine I, Medical University of Vienna, Austria) were cultured in McCoy’s 5a medium supplemented with 4 mM L-glutamine (both purchased from Sigma-Aldrich) and 10% FBS. MCF-7 human breast adenocarcinoma cells (kindly provided by M. Ogris, Department of Pharmaceutical Sciences, University of Vienna, Austria) were maintained in DMEM (high glucose) supplemented with 4 mM L-glutamine, 0.1 mg/mL human insulin (all purchased from Sigma-Aldrich) and 10% FBS. All cell lines were grown as monolayers in 75 cm^2 culture flasks (CytoOne, Starlab, Hamburg, Germany) at 37 °C in a humidified atmosphere containing 5% CO2.
(§2) Exponentially growing cells were plated into 96-well microculture plates (CytoOne, tissue culture treated, Starlab, Hamburg, Germany) in densities of 1 × 10^3 CH1/PA-1, 2 × 10^3 SW480, 3 × 10^3 A549 and 7 × 10^3 IMR-90 cells per well (each in 100 µL). After a 24 h preincubation, drugs were added in serial dilution to give a final volume of 200 µL/well and exposed for 96 h. At the end of the exposure, the drug solutions were replaced by 100 µL RPMI 1640/MTT mixture (7:1 ratio). MTT (3-(4,5-dimethylthiazol-2-yl)-2,5-diphenyl-2H-tetrazolium bromide), (Acros Organics, Geel, Belgium) solution was prepared in phosphate-buffered saline (5 mg/mL) and mixed with RPMI1640 medium supplemented with 4 mM L-glutamine (both from Sigma-Aldrich) and 10% FBS. After 4 h incubation, the formazan crystals were solubilized in 150 µL of DMSO per well. Absorbance was measured at 550 nm (and at 690 nm as a reference) with a microplate reader (ELx808, BioTek, Winoosky, VT, USA) and Gen5^TM 3.08 software (BioTek). The 50% inhibitory concentrations (IC50) relative to untreated controls were interpolated from concentration-effect curves. At least three biologically and technically independent experiments were performed.

[2] = system: A549 (non-small cell lung carcinoma) cells; details: MTT assay, 96 h; cited from earlier work
[3] = system: SW480 (colon carcinoma) cells; details: MTT assay, 96 h; cited from earlier work
[4] = system: CH1/PA-1 (ovarian teratocarcinoma) cells; details: MTT assay, 96 h; cited from earlier work
[5] = system: A549 (non-small cell lung carcinoma) cells; assay: MTT cytotoxicity assay, A549 monolayer; type: cell-based, human; details: for activity in A549: 96 h; for IC50: exposure time 96 h, mean ± SD
Procedure: as §1, §2

[6] = system: SW480 (colon carcinoma) cells; assay: MTT cytotoxicity assay, SW480 monolayer; type: cell-based, human; details: for activity in SW480: 96 h; for IC50: exposure time 96 h, mean ± SD
Procedure: as §1, §2

[7] = system: CH1/PA-1 (ovarian teratocarcinoma) cells; assay: MTT cytotoxicity assay, CH1/PA-1 monolayer; type: cell-based, human; details: exposure time 96 h, mean ± SD
Procedure: as §1, §2

[8] = Solubility in PBS (1% DMSO); type: physicochemical
Procedure: Stock solutions in DMSO of compounds 1–10 were utilized to determine the solubility in PBS by adding 1 vol% of the stock solution to a suitable amount of PBS. […] UV/Vis data were recorded on a Perkin Elmer Lambda 650 UV/Vis Spectrophotometer with a Peltier element for temperature control.

[9] = Cyclic voltammetry in MeCN (W(IV) to W(V)); type: physicochemical; details: vs. NHE, scan rate 200 mV/s
Procedure: NMR spectra were recorded with a Bruker FT-NMR Avance III^TM 500 MHz spectrometer at 500.10 (^1H), and 125.75 MHz (^13C) using DMSO–d6. 2D-NMR measurements were recorded utilizing standard pulse programs COSY, HSQC and HMBC. The Microanalytical Laboratory of the University of Vienna performed the elemental analyses with a Eurovector EA 3000(2009) equipped with a high temperature pyrolysis furnace (HT, Hekatech, Germany, 2009). Elemental analyses’ samples were weighed (weights from 1–3 mg were used) on a Sartorius SEC 2 ultra-micro balance with ±0.1 µg resolution. Two NIST-certified reference materials were used for calibration: sulfanilamide (C6H8N2O2S) and BBOT (2,5-bis-(5-tert-butyl-2-benzoxazol-2-yl)-thiophenone, C26H26N2O2S). The limit of quantification (LOQ) was 0.05 w% for C, H, N and 0.02 w% for S. For samples without N and/or S, the content of these elements was determined and verified to be below the LOQ. X-ray diffraction analyses were carried out on a Bruker X8 APEX II CCD diffractometer at 100 K. ESI-MS were recorded on a Bruker AmaZon SL ion trap mass spectrometer (Bruker Daltonics GmbH). Data were obtained and processed with Compass 1.3 and Data Analysis 4.0 (Bruker Daltonics GmbH). Infrared spectra were attained on a Bruker Vertex 70 FT-IR-spectrometer with an ATR-unit (attenuated total reflection unit) in the range of 4000–600 cm^−1. Intensities of the reported bands are described with w for weak, m for medium and s for strong; broad signals are additionally specified with the letter b in front of these abbreviations. Cyclic voltammograms (CVs) were measured in a three-electrode cell using 2 mm diameter glassy carbon disk working electrode, a platinum auxiliary electrode and an Ag|Ag^+ reference electrode containing 0.1 M AgNO3. Measurements were carried out at room temperature using an EG&G PARC potentiostat/galvanostat 273A. The solutions were deoxygenized by purging a stream of argon for 3 min through the solution and the experiment was performed under an argon atmosphere. The potentials were measured in a freshly prepared solution of (n Bu4N)[BF4] (0.1 M) in acetonitrile using ferrocene (Fe(η^5-C5H5)2) (E1/2 = +0.72 V vs. NHE) as an internal standard and are quoted relative to the normal hydrogen electrode (NHE).
The electrochemical behavior of all complexes and the precursor Cp2WCl2 was studied by cyclic voltammetry with a scan rate of 200 mV/s, from −0.5 to +1.2 or +1.5 V. Measurements were performed in triplicate. Due to low water solubility of compounds 1–10 acetonitrile (MeCN) was utilized in order to reach the 2 mM concentration.

HCT116 cells [10] = assay: Resazurin assay, HCT116 2D monolayer; type: cell-based, human; details: 96 h
Procedure: as §1
(§3) For the resazurin assay in monolayer cultures, cells were seeded into 96-well microculture plates (CytoOne, tissue culture treated, Starlab, Hamburg, Germany) in densities of 2 × 10^3 HCT116, 2 × 10^3 HT29 and 4 × 10^3 MCF-7 cells per well (each in 100 µL). For tests in 3D cultures, spheroids were grown as described above. After 24 h (for monolayers) or 4 days (for spheroids) the test compounds in the appropriate medium were added in serial dilution to the plates to obtain a total volume of 200 µL/well. Wells without cells, containing medium and resazurin (Alfa Aesar, Thermo Fisher, Kandel, Germany) solution were used as blanks. After 96 h exposure 20 µL of the resazurin solution (440 µM) were added to each well, followed by a 4 h (2D) or 12 h (3D) incubation period. Resorufin fluorescence was quantified at 530 nm (and a reference wavelength of 620 nm) by using a microplate reader (Synergy HT, BioTek) with Gen5^TM 3.10 software (BioTek).

[11] = system: HCT116 multicellular tumor spheroids; assay: Resazurin assay, HCT116 3D spheroids; type: cell-based, human; details: 96 h, spheroids
Procedure: as §1
(§4) For growing multicellular tumor spheroids, 400 HCT116, 400 HT29 or 800 MCF-7 cells per well were plated into round-bottom ultra-low attachment 96-well plates (Corning, Glendale, AZ, USA) in the media described above and incubated at 37 °C for 96 h. Spheroids were treated with 10 µM of the two most cytotoxic compounds 3 and 4 for another 96 h. The diameters of the spheroids were measured with Cell^F software under a CKX41 Olympus microscope before treatment and in constant daily intervals over the 96 h treatment period. For statistical analysis the t-test with Welsh’s correction was implemented in GraphPad Prism software (Version 6.01).
as §3

HT29 cells [12] = assay: Resazurin assay, HT29 2D monolayer; type: cell-based, human; details: 96 h
Procedure: as §1, §3

[13] = system: HT29 multicellular tumor spheroids; assay: Resazurin assay, HT29 3D spheroids; type: cell-based, human; details: 96 h, spheroids
Procedure: as §1, §4, §3

MCF-7 cells [14] = assay: Resazurin assay, MCF-7 2D monolayer; type: cell-based, human; details: 96 h
Procedure: as §1, §3

[15] = system: MCF-7 multicellular tumor spheroids; assay: Resazurin assay, MCF-7 3D spheroids; type: cell-based, human; details: 96 h, spheroids
Procedure: as §1, §4, §3

[16] = system: HCT116, HT29 and MCF-7 cell lines; assay: ROS detection (DCFH-DA assay); type: cell-based, human; details: 2, 20, 100 and 200 µM, 2 h
Procedure: Reactive oxygen species (ROS) generation was measured by means of the DCFH-DA assay. […] On the following day, cells were washed with 200 µL Hanks’ balanced salt solution (HBSS, Sigma-Aldrich, containing 1% FBS) and stained with 100 µL of 25 µM DCFH-DA (2′,7′-dichlorofluorescein diacetate, Sigma-Aldrich) in HBSS (containing 1% FBS) for 45 min at 37 °C in the dark. After the incubation period, cells were washed with 200 µL HBSS (1% FBS) and loaded with compounds at concentrations of 2 µM, 20 µM, 100 µM and 200 µM in 200 µL phenol-red-free MEM (1% FBS) in triplicates. As positive controls, cells were treated with 200 µM and 400 µM tert-butylhydroperoxide (Sigma-Aldrich). Wells containing only phenol-red-free medium with 1% FBS were used as blanks, and non-drug treated, cell containing wells as reference values. Fluorescence (excitation: 485/20 nm, emission: 516/20 nm) was recorded in 10 min intervals with the Synergy HT reader (BioTek) over 2 h.

HCT116 cells [17] = assay: Annexin V-FITC/PI apoptosis assay, HCT116; type: cell-based, human; details: HCT116, 24 h, 200 µM
HT29 cells [18] = assay: Annexin V-FITC/PI apoptosis assay, HT29; details: HT29, 24 h, 200 µM
MCF-7 cells [19] = assay: Annexin V-FITC/PI apoptosis assay, MCF-7; details: MCF-7, 24 h, 200 µM

N.N.[Cl][Pt][Cl] [Cisplatin]
IC50 [1]: 14 ± 1 µM | IC50 [2]: 3.8 ± 1 µM | IC50 [3]: 2.3 ± 0.2 µM | IC50 [4]: 0.073 ± 0.001 µM

Cc1occc(=O)c1[O-].F[P-](F)(F)(F)(F)F.[W+4].c1cc[cH-]c1.c1cc[cH-]c1 [Compound 1, Bis(η^5-cyclopentadienyl)[2-methyl-3-(oxo-κO)-4-(1H)-pyran-4-ato-κO]tungsten(IV) hexafluorophosphate]
activity in A549 [5]: no activity was observed | IC50 [5]: > 200 µM | activity in SW480 [6]: no activity was observed | IC50 [6]: > 200 µM | IC50 [7]: 85 ± 41 µM | Solubility in PBS (1% DMSO) [8]: 0.23 mg/mL | E1/2 [9]: 1.037 V

Cc1occc(=O)c1[O-].[Cl-].[W+4].c1cc[cH-]c1.c1cc[cH-]c1 [Compound 1A, Bis(η^5-cyclopentadienyl)[2-methyl-3-(oxo-κO)-4-(1H)-pyran-4-ato-κO]tungsten(IV) chloride]
activity in A549 [5]: no activity was observed | IC50 [5]: > 200 µM | activity in SW480 [6]: no activity was observed | IC50 [6]: > 200 µM | IC50 [7]: 147 ± 18 µM | IC50 (HCT116 cells [10]): > 200 µM | IC50 [11]: > 200 µM | IC50 (HT29 cells [12]): > 200 µM | IC50 [13]: > 200 µM | IC50 (MCF-7 cells [14]): > 200 µM | IC50 [15]: > 200 µM | Solubility in PBS (1% DMSO) [8]: 5.00 mg/mL | intracellular ROS levels [16]: Pronounced elevation of ROS levels | early apoptotic cells [%] AV+ / PI- (HCT116 cells [17]): 5.6 ± 2.1% | late apoptotic cells [%] AV+ / PI+ (HCT116 cells [17]): 16.1 ± 4.6% | necrotic cells [%] AV- / PI+ (HCT116 cells [17]): 3.8 ± 2.1% | viable cells [%] AV- / PI- (HCT116 cells [17]): 74.5 ± 7.0% | ∑apoptotic cells [%] (HCT116 cells [17]; sum of early and late): 21.7% | early apoptotic cells [%] AV+ / PI- (HT29 cells [18]): 3.5 ± 2.5% | late apoptotic cells [%] AV+ / PI+ (HT29 cells [18]): 4.3 ± 0.9% | necrotic cells [%] AV- / PI+ (HT29 cells [18]): 4.4 ± 4.8% | viable cells [%] AV- / PI- (HT29 cells [18]): 87.8 ± 4.0% | ∑apoptotic cells [%] (HT29 cells [18]; sum of early and late): 7.8% | early apoptotic cells [%] AV+ / PI- (MCF-7 cells [19]): 1.1 ± 0.6% | late apoptotic cells [%] AV+ / PI+ (MCF-7 cells [19]): 3.2 ± 1.3% | necrotic cells [%] AV- / PI+ (MCF-7 cells [19]): 2.3 ± 0.5% | viable cells [%] AV- / PI- (MCF-7 cells [19]): 94.3 ± 2.3% | ∑apoptotic cells [%] (MCF-7 cells [19]; sum of early and late): 4.3%

[Cl-].[Cl-].[Mo+4].c1cc[cH-]c1.c1cc[cH-]c1 [Cp2MoCl2, Molybdenocene dichloride]
IC50 [2]: > 200 µM | IC50 [3]: > 200 µM | IC50 [4]: > 200 µM
